Experimental data taken from PubChem BioAssay (NCI).
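Grown in 96-well plates, cells were treated for 48 hours with each compound at five concentrations. Insufficient inhibition: endpoint recorded as highest concentration tested. GI50 = concentration required for 50% inhibition of growth. TGI: total growth inhibition.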

How the values were obtained:
Experiment in all cases: NCI anticancer screen, dose series, 48 h
OVCAR-8 ovarian = test system: OVCAR-8 ovarian
EKVX NSCLC = test system: EKVX NSCLC
OVCAR-3 ovarian = test system: OVCAR-3 ovarian
MCF7 breast = test system: MCF7 breast
PC-3 prostate = test system: PC-3 prostate
COLO 205 colon = test system: COLO 205 colon
NCI-H23 lung = test system: NCI-H23 lung
HCT-15 colon = test system: HCT-15 colon
M14 melanoma = test system: M14 melanoma
K-562 leukemia = test system: K-562 leukemia
SNB-75 CNS = test system: SNB-75 CNS
SF-539 CNS = test system: SF-539 CNS
SNB-19 CNS = test system: SNB-19 CNS
SK-MEL-28 melanoma = test system: SK-MEL-28 melanoma
NCI-H460 lung = test system: NCI-H460 lung
OVCAR-5 ovarian = test system: OVCAR-5 ovarian
SF-268 CNS = test system: SF-268 CNS
BT-549 breast = test system: BT-549 breast
HOP-62 NSCLC = test system: HOP-62 NSCLC
HCT-116 colon = test system: HCT-116 colon
TK-10 renal = test system: TK-10 renal
IGROV1 ovarian = test system: IGROV1 ovarian
SF-295 CNS = test system: SF-295 CNS
NCI-H226 lung = test system: NCI-H226 lung
HT29 colon = test system: HT29 colon
MDA-MB-231 breast = test system: MDA-MB-231 breast
HL-60(TB) leukemia = test system: HL-60(TB) leukemia
UACC-62 melanoma = test system: UACC-62 melanoma
ACHN renal = test system: ACHN renal
U251 CNS = test system: U251 CNS
NCI-H522 lung = test system: NCI-H522 lung
HCC-2998 colon = test system: HCC-2998 colon
LOX IMVI melanoma = test system: LOX IMVI melanoma
SK-MEL-5 melanoma = test system: SK-MEL-5 melanoma
CAKI-1 renal = test system: CAKI-1 renal
SK-OV-3 ovarian = test system: SK-OV-3 ovarian
HOP-92 NSCLC = test system: HOP-92 NSCLC
RPMI-8226 leukemia = test system: RPMI-8226 leukemia
UO-31 renal = test system: UO-31 renal
HS 578T breast = test system: HS 578T breast
A498 renal = test system: A498 renal
CCRF-CEM leukemia = test system: CCRF-CEM leukemia
RXF 393 renal = test system: RXF 393 renal
MALME-3M melanoma = test system: MALME-3M melanoma
T-47D breast = test system: T-47D breast
MDA-MB-435 = test system: MDA-MB-435
786-0 renal = test system: 786-0 renal
OVCAR-4 ovarian = test system: OVCAR-4 ovarian
SK-MEL-2 melanoma = test system: SK-MEL-2 melanoma
SW-620 colon = test system: SW-620 colon
SN12C renal = test system: SN12C renal
SR leukemia = test system: SR leukemia
UACC-257 melanoma = test system: UACC-257 melanoma
DU-145 prostate = test system: DU-145 prostate
MOLT-4 leukemia = test system: MOLT-4 leukemia
A549 NSCLC = test system: A549 NSCLC
NCI/ADR-RES ovarian = test system: NCI/ADR-RES ovarian
KM12 colon = test system: KM12 colon

In the case of `c1cc[n+](C2c3ccccc3C([n+]3ccccc3)c3ccccc32)cc1` (stereo unspecified), the GI50 (OVCAR-8 ovarian) was 6.23 µM, the TGI (OVCAR-8 ovarian) was greater than 100 µM and the GI50 (EKVX NSCLC) was 3.39 µM. The TGI (EKVX NSCLC) was greater than 100 µM, the GI50 (OVCAR-3 ovarian) was 14.1 µM and the TGI (OVCAR-3 ovarian) was greater than 77 µM. It also gave a GI50 (MCF7 breast) of 11.9 µM, a TGI (MCF7 breast) greater than 100 µM and a GI50 (PC-3 prostate) of 4.8 µM. The TGI (PC-3 prostate) was greater than 100 µM, the GI50 (COLO 205 colon) was 4.24 µM and the TGI (COLO 205 colon) was 22.2 µM. The GI50 (NCI-H23 lung) was 5.11 µM, the TGI (NCI-H23 lung) was greater than 52.4 µM and the GI50 (HCT-15 colon) was greater than 100 µM. The TGI (HCT-15 colon) was greater than 100 µM, the GI50 (M14 melanoma) was 41 µM and the TGI (M14 melanoma) was greater than 100 µM. It also gave a GI50 (K-562 leukemia) of 12 µM, a TGI (K-562 leukemia) greater than 100 µM and a GI50 (SNB-75 CNS) of 1.13 µM. The TGI (SNB-75 CNS) was 3.15 µM, the GI50 (SF-539 CNS) was 2.59 µM and the TGI (SF-539 CNS) was 17.3 µM. For the same compound, the GI50 (SNB-19 CNS) was 4.13 µM, the TGI (SNB-19 CNS) was 42.8 µM and the GI50 (SK-MEL-28 melanoma) was 5.92 µM. It also gave a TGI (SK-MEL-28 melanoma) greater than 44.5 µM, a GI50 (NCI-H460 lung) of 21.1 µM and a TGI (NCI-H460 lung) greater than 89.4 µM. For the same compound, the GI50 (OVCAR-5 ovarian) was 26.7 µM, the TGI (OVCAR-5 ovarian) was greater than 100 µM and the GI50 (SF-268 CNS) was 2.13 µM. For the same compound, the TGI (SF-268 CNS) was 11.8 µM, the GI50 (BT-549 breast) was 3.64 µM and the TGI (BT-549 breast) was 14.6 µM. It also gave a GI50 (HOP-62 NSCLC) of 5.77 µM, a TGI (HOP-62 NSCLC) of 71.1 µM and a GI50 (HCT-116 colon) of 10.7 µM. The TGI (HCT-116 colon) was greater than 100 µM, the GI50 (TK-10 renal) was 19.2 µM and the TGI (TK-10 renal) was greater than 100 µM. It also gave a GI50 (IGROV1 ovarian) of 1.96 µM, a TGI (IGROV1 ovarian) greater than 82.8 µM and a GI50 (SF-295 CNS) of 4.2 µM. The TGI (SF-295 CNS) was 80.9 µM, the GI50 (NCI-H226 lung) was 17.9 µM and the TGI (NCI-H226 lung) was greater than 100 µM. It also gave a GI50 (HT29 colon) of 12.6 µM, a TGI (HT29 colon) greater than 75.5 µM and a GI50 (MDA-MB-231 breast) of 21.6 µM. For the same compound, the TGI (MDA-MB-231 breast) was greater than 100 µM, the GI50 (HL-60(TB) leukemia) was 22.6 µM and the TGI (HL-60(TB) leukemia) was greater than 100 µM. It also gave a GI50 (UACC-62 melanoma) of 11.3 µM, a TGI (UACC-62 melanoma) of 28.7 µM and a GI50 (ACHN renal) greater than 100 µM. The TGI (ACHN renal) was greater than 100 µM, the GI50 (U251 CNS) was 3.14 µM and the TGI (U251 CNS) was greater than 90.8 µM. The GI50 (NCI-H522 lung) was 4.67 µM, the TGI (NCI-H522 lung) was 30.7 µM and the GI50 (HCC-2998 colon) was 10.3 µM. For the same compound, the TGI (HCC-2998 colon) was 31.8 µM, the GI50 (LOX IMVI melanoma) was 15.8 µM and the TGI (LOX IMVI melanoma) was greater than 100 µM. It also gave a GI50 (SK-MEL-5 melanoma) of 7.91 µM, a TGI (SK-MEL-5 melanoma) of 23.2 µM and a GI50 (CAKI-1 renal) greater than 100 µM. It also gave a TGI (CAKI-1 renal) greater than 100 µM, a GI50 (SK-OV-3 ovarian) of 52.5 µM and a TGI (SK-OV-3 ovarian) greater than 100 µM. It also gave a GI50 (HOP-92 NSCLC) of 4.45 µM, a TGI (HOP-92 NSCLC) of 50.9 µM and a GI50 (RPMI-8226 leukemia) of 6.96 µM. For the same compound, the TGI (RPMI-8226 leukemia) was greater than 86.4 µM, the GI50 (UO-31 renal) was greater than 100 µM and the TGI (UO-31 renal) was greater than 100 µM. The GI50 (HS 578T breast) was 4.4 µM, the TGI (HS 578T breast) was 27 µM and the GI50 (A498 renal) was 15.8 µM. For the same compound, the TGI (A498 renal) was 73.7 µM, the GI50 (CCRF-CEM leukemia) was 10.7 µM and the TGI (CCRF-CEM leukemia) was greater than 100 µM. The GI50 (RXF 393 renal) was 19.5 µM, the TGI (RXF 393 renal) was 86.2 µM and the GI50 (MALME-3M melanoma) was 3.9 µM. The TGI (MALME-3M melanoma) was 18.6 µM, the GI50 (T-47D breast) was 10.1 µM and the TGI (T-47D breast) was 79.6 µM. For the same compound, the GI50 (MDA-MB-435) was 5.89 µM, the TGI (MDA-MB-435) was 23 µM and the GI50 (786-0 renal) was 15.9 µM. The TGI (786-0 renal) was greater than 100 µM, the GI50 (OVCAR-4 ovarian) was 18.4 µM and the TGI (OVCAR-4 ovarian) was greater than 100 µM. It also gave a GI50 (SK-MEL-2 melanoma) of 15 µM, a TGI (SK-MEL-2 melanoma) greater than 66.4 µM and a GI50 (SW-620 colon) of 8.52 µM. It also gave a TGI (SW-620 colon) greater than 100 µM, a GI50 (SN12C renal) of 3.39 µM and a TGI (SN12C renal) of 25.4 µM. For the same compound, the GI50 (SR leukemia) was 7.64 µM, the TGI (SR leukemia) was greater than 100 µM and the GI50 (UACC-257 melanoma) was 5.93 µM. The TGI (UACC-257 melanoma) was 37 µM, the GI50 (DU-145 prostate) was 14.2 µM and the TGI (DU-145 prostate) was 43.8 µM. For the same compound, the GI50 (MOLT-4 leukemia) was 25.8 µM, the TGI (MOLT-4 leukemia) was greater than 100 µM and the GI50 (A549 NSCLC) was 26.6 µM. For the same compound, the TGI (A549 NSCLC) was greater than 100 µM, the GI50 (NCI/ADR-RES ovarian) was greater than 100 µM and the TGI (NCI/ADR-RES ovarian) was greater than 100 µM. It also gave a GI50 (KM12 colon) of 6.43 µM and a TGI (KM12 colon) of 50.1 µM.
